Data reported in ChEMBL document CHEMBL4028803, “Design, synthesis, and structure-activity relationship studies of benzothiazole derivatives as antifungal agents” (Eur J Med Chem, 2016).
Converted amounts (≈) assume the structure as drawn.

Assays:
Candida albicans [1] = assay: Antifungal activity against Candida albicans ATCC SC5314 by broth microdilution assay; type: functional
Candida albicans [2] = assay: Antifungal activity against Candida albicans CPCC 400523 by broth microdilution assay; type: functional
Cryptococcus neoformans [3] = assay: Antifungal activity against Cryptococcus neoformans cgmcc 2.3161 by broth microdilution assay; type: functional
Aspergillus fumigatus = assay: Antifungal activity against Aspergillus fumigatus cgmcc 3.7795 by broth microdilution assay; type: functional
Candida tropicalis = assay: Antifungal activity against Candida tropicalis cgmcc 2.3739 by broth microdilution assay; type: functional
Candida albicans [4] = assay: Antifungal activity against fluconazole-resistant Candida albicans 100 by broth microdilution assay; type: functional
Candida albicans [5] = assay: Antifungal activity against fluconazole-resistant Candida albicans 103 by broth microdilution assay; type: functional
[6] = target: T1, Lanosterol 14-alpha demethylase (Candida albicans (strain SC5314 / ATCC MYA-2876) (Yeast), UniProt P10613); assay: Inhibition of CYP51 in Candida albicans ATCC SC5314 assessed as ergosterol composition of the total sterol fraction in membrane at 8 ug/ml after 16 hrs by GC-MS analysis (reference value: 89.6%); set-up: scale not given: the % may be the effect or the level left; details: candida albicans sc5314, 16 h
[7] = target: T1, Lanosterol 14-alpha demethylase; assay: Inhibition of CYP51 in Candida albicans ATCC SC5314 assessed as obtusifoliol composition of the total sterol fraction in membrane at 8 ug/ml after 16 hrs by GC-MS analysis relative to control; set-up: scale not given: the % may be the effect or the level left; details: candida albicans sc5314, 16 h
[8] = target: T1, Lanosterol 14-alpha demethylase; assay: Inhibition of CYP51 in Candida albicans ATCC SC5314 assessed as lanosterol composition of the total sterol fraction in membrane at 8 ug/ml after 16 hrs by GC-MS analysis (reference value: 2.9%); set-up: scale not given: the % may be the effect or the level left; details: candida albicans sc5314, 16 h
[9] = target: T1, Lanosterol 14-alpha demethylase; assay: Inhibition of CYP51 in Candida albicans ATCC SC5314 assessed as eburicol composition of the total sterol fraction in membrane at 8 ug/ml after 16 hrs by GC-MS analysis relative to control; set-up: scale not given: the % may be the effect or the level left; details: candida albicans sc5314, 16 h
[10] = target: T1, Lanosterol 14-alpha demethylase; assay: Inhibition of CYP51 in Candida albicans ATCC SC5314 assessed as sterol composition in membrane at 8 ug/ml after 16 hrs by GC-MS analysis (reference value: 7.5%); set-up: scale not given: the % may be the effect or the level left; details: candida albicans sc5314, 16 h
Candida albicans [11] = assay: Antifungal activity against Candida albicans by NCCLS method; type: functional
Cryptococcus neoformans [12] = assay: Antifungal activity against Cryptococcus neoformans by NCCLS method; type: functional

T1 sequence (P10613 whole entry): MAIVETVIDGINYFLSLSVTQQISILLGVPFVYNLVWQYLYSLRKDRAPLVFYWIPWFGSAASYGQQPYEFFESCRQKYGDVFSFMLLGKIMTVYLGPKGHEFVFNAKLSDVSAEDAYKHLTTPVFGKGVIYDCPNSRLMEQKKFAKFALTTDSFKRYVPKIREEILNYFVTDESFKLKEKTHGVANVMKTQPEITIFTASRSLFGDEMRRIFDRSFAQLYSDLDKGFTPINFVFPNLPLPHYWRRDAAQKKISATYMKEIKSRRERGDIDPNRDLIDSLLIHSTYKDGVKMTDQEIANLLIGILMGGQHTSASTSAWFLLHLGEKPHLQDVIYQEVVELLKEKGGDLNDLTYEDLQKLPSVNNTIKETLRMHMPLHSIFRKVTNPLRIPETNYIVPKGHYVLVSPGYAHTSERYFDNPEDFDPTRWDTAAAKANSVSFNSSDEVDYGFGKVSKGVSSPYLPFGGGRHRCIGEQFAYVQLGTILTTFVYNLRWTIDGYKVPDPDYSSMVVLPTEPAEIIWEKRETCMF

Row | Structure (SMILES) | MIC (Candida albicans [1]) [mg/L] | MIC (Candida albicans [2]) [mg/L] | MIC (Cryptococcus neoformans [3]) [mg/L] | MIC (Aspergillus fumigatus) [mg/L] | MIC (Candida tropicalis) [mg/L] | MIC (Candida albicans [4]) [mg/L] | MIC (Candida albicans [5]) [mg/L] | Activity [6] [%] | Activity [7] [%] | Activity [8] [%] | Activity [9] [%] | Activity [10] [%] | MIC (Candida albicans [11]) [mg/L] | MIC (Cryptococcus neoformans [12]) [mg/L]
1 | CCNC(=O)[C@H](Cn1ccnc1)NC(=O)c1nc2ccc(Br)cc2s1 | > 64 | > 64 | > 64 | > 64 | > 64 |  |  |  |  |  |  |  |  | 
2 | Cc1ccc2nc(C(=O)N[C@@H](Cn3ccnc3)C(=O)OC(C)C)sc2c1 | 0.5 (≈ 1.34 µM) | 4 (≈ 10.7 µM) | 2 (≈ 5.37 µM) | > 64 | 1 (≈ 2.68 µM) |  |  |  |  |  |  |  |  | 
3 | Cc1ccc2nc(C(=O)N[C@@H](Cn3ccnc3)C(=O)OCC(C)C)sc2c1 | 0.25 (≈ 0.647 µM) | 2 (≈ 5.17 µM) | 0.5 (≈ 1.29 µM) | > 64 | 0.5 (≈ 1.29 µM) |  |  |  |  |  |  |  |  | 
4 | CC(C)COC(=O)[C@@H](Cn1ccnc1)NC(=O)c1nc2ccc(Br)cc2s1 | 0.125 (≈ 0.277 µM) | 0.25 (≈ 0.554 µM) | 0.5 (≈ 1.11 µM) | > 64 | 0.125 (≈ 0.277 µM) |  |  |  |  |  |  |  |  | 
5 | CCOC(=O)[C@H](Cn1ccnc1)NC(=O)c1nc2ccc(C)cc2s1 | 2 (≈ 5.58 µM) | > 64 | 8 (≈ 22.3 µM) | > 64 | 4 (≈ 11.2 µM) |  |  |  |  |  |  |  |  | 
6 | CC(C)COC(=O)[C@H](Cn1ccnc1)NC(=O)c1nc2ccc(F)cc2s1 | 0.5 (≈ 1.28 µM) | 16 (≈ 41 µM) | 4 (≈ 10.2 µM) | > 64 | 8 (≈ 20.5 µM) |  |  |  |  |  |  |  |  | 
7 | CCCOC(=O)[C@H](Cn1ccnc1)NC(=O)c1nc2ccc(C)cc2s1 | 0.5 (≈ 1.34 µM) | 4 (≈ 10.7 µM) | 2 (≈ 5.37 µM) | > 64 | 0.5 (≈ 1.34 µM) |  |  |  |  |  |  |  |  | 
8 | CC(C)COC(=O)[C@H](Cn1ccnc1)NC(=O)c1nc2c(C(F)(F)F)cccc2s1 | > 64 | > 64 | > 64 | > 64 | > 64 |  |  |  |  |  |  |  |  | 
9 | CC(C)COC(=O)[C@H](Cn1ccnc1)NC(=O)c1nc2ccc(Cl)cc2s1 | 0.125 (≈ 0.307 µM) | 2 (≈ 4.92 µM) | 1 (≈ 2.46 µM) | > 64 | 0.25 (≈ 0.614 µM) |  |  |  |  |  |  |  |  | 
10 | Cc1cccc2sc(C(=O)N[C@@H](Cn3ccnc3)C(=O)OCC(C)C)nc12 | > 64 | > 64 | > 64 | > 64 | > 64 |  |  |  |  |  |  |  |  | 
11 | CCCOC(=O)[C@H](Cn1ccnc1)NC(=O)c1nc2ccc(Cl)cc2s1 | 0.5 (≈ 1.27 µM) | 2 (≈ 5.09 µM) | 2 (≈ 5.09 µM) | > 64 | 1 (≈ 2.55 µM) |  |  |  |  |  |  |  |  | 
12 | CC(C)OC(=O)[C@H](Cn1ccnc1)NC(=O)c1nc2ccc(F)cc2s1 | 4 (≈ 10.6 µM) | 16 (≈ 42.5 µM) | > 64 | > 64 | 16 (≈ 42.5 µM) |  |  |  |  |  |  |  |  | 
13 | CC(C)COC(=O)[C@H](Cn1ccnc1)NC(=O)c1nc2ccc(Br)cc2s1 | 0.125 (≈ 0.277 µM) | 0.25 (≈ 0.554 µM) | 0.5 (≈ 1.11 µM) | > 64 | 0.25 (≈ 0.554 µM) | 16 (≈ 35.4 µM) | 8 (≈ 17.7 µM) | 2.7 | 6.4 | 18.8 | 63.4 | 8.6 |  | 
14 | COC(=O)[C@H](Cn1ccnc1)NC(=O)c1nc2ccc(C)cc2s1 | 8 (≈ 23.2 µM) | > 64 | 8 (≈ 23.2 µM) | > 64 | 16 (≈ 46.5 µM) |  |  |  |  |  |  |  |  | 
15 | COC(=O)[C@H](Cn1ccnc1)NC(=O)c1nc2ccccc2s1 |  |  |  |  |  |  |  |  |  |  |  |  | 8 (≈ 24.2 µM) | 2 (≈ 6.05 µM)
16 | COC(=O)[C@H](Cn1ccnc1)NC(=O)c1nc2ccc(Cl)cc2s1 | 8 (≈ 21.9 µM) | 16 (≈ 43.9 µM) | 32 (≈ 87.7 µM) | > 64 | 8 (≈ 21.9 µM) |  |  |  |  |  |  |  |  | 
17 | COc1ccc2nc(C(=O)N[C@@H](Cn3ccnc3)C(=O)OC(C)C)sc2c1 | 2 (≈ 5.15 µM) | 4 (≈ 10.3 µM) | 32 (≈ 82.4 µM) | > 64 | 2 (≈ 5.15 µM) |  |  |  |  |  |  |  |  | 
18 | CNC(=O)[C@H](Cn1ccnc1)NC(=O)c1nc2ccc(Br)cc2s1 | > 64 | > 64 | > 64 | > 64 | > 64 |  |  |  |  |  |  |  |  | 
19 | CC(C)OC(=O)[C@H](Cn1ccnc1)NC(=O)c1nc2ccc(Br)cc2s1 | 0.125 (≈ 0.286 µM) | 0.5 (≈ 1.14 µM) | 2 (≈ 4.57 µM) | > 64 | 0.5 (≈ 1.14 µM) | 32 (≈ 73.2 µM) | 16 (≈ 36.6 µM) |  |  |  |  |  |  | 
20 | CC(C)OC(=O)[C@@H](Cn1ccnc1)NC(=O)c1nc2ccc(Br)cc2s1 | 0.125 (≈ 0.286 µM) | 0.5 (≈ 1.14 µM) | 2 (≈ 4.57 µM) | > 64 | 1 (≈ 2.29 µM) |  |  |  |  |  |  |  |  | 
21 | CC(C)OC(=O)[C@H](Cn1ccnc1)NC(=O)c1nc2ccc(Cl)cc2s1 | 0.25 (≈ 0.636 µM) | 2 (≈ 5.09 µM) | 2 (≈ 5.09 µM) | > 64 | 1 (≈ 2.55 µM) |  |  |  |  |  |  |  |  | 
22 | CC(C)COC(=O)[C@H](Cn1ccnc1)NC(=O)c1nc2c(Cl)cccc2s1 | > 64 | > 64 | > 64 | > 64 | > 64 |  |  |  |  |  |  |  |  | 
23 | CCOC(=O)[C@H](Cn1ccnc1)NC(=O)c1nc2ccc(Cl)cc2s1 | 0.5 (≈ 1.32 µM) | 4 (≈ 10.6 µM) | 8 (≈ 21.1 µM) | > 64 | 2 (≈ 5.28 µM) |  |  |  |  |  |  |  |  | 
24 | CC(C)COC(=O)[C@H](Cn1ccnc1)NC(=O)c1nc2ccc(C(F)(F)F)cc2s1 | 0.125 (≈ 0.284 µM) | 2 (≈ 4.54 µM) | 0.5 (≈ 1.14 µM) | > 64 | 0.5 (≈ 1.14 µM) | 32 (≈ 72.7 µM) | 32 (≈ 72.7 µM) |  |  |  |  |  |  | 
25 | COc1ccc2nc(C(=O)N[C@@H](Cn3ccnc3)C(=O)OCC(C)C)sc2c1 | 2 (≈ 4.97 µM) | 4 (≈ 9.94 µM) | 8 (≈ 19.9 µM) | > 64 | 1 (≈ 2.48 µM) |  |  |  |  |  |  |  |  | 
26 | CC(C)OC(=O)[C@H](Cn1ccnc1)NC(=O)c1nc2ccc(C(F)(F)F)cc2s1 | 0.125 (≈ 0.293 µM) | 2 (≈ 4.69 µM) | 2 (≈ 4.69 µM) | > 64 | 1 (≈ 2.35 µM) |  |  |  |  |  |  |  |  | 
27 | OC(Cn1cncn1)(Cn1cncn1)c1ccc(F)cc1F [FLUCONAZOLE] | 0.5 (≈ 1.63 µM) | 1 (≈ 3.27 µM) | 4 (≈ 13.1 µM) | > 64 | 1 (≈ 3.27 µM) | > 64 | > 64 | 2.1 | 6.9 | 18.3 | 67.9 | 4.8 |  | 
28 | CCC(C)n1ncn(-c2ccc(N3CCN(c4ccc(OCC5COC(Cn6cncn6)(c6ccc(Cl)cc6Cl)O5)cc4)CC3)cc2)c1=O (stereo not given) [ITRACONAZOLE] | 0.125 (≈ 0.177 µM) | 0.5 (≈ 0.709 µM) | 1 (≈ 1.42 µM) | 4 (≈ 5.67 µM) | 0.5 (≈ 0.709 µM) |  |  |  |  |  |  |  |  | 
